Square brackets hold non-standard residues; d marks the D form. Peptide text beside a SMILES is read from it. * marks the point of attachment. Phe(4-guanidino) = N=C(N)Nc1ccc(C[C@H](N)C(=O)O)cc1; Phe(4-Me) = Cc1ccc(C[C@H](N)C(=O)O)cc1; Phg = N[C@H](C(=O)O)c1ccccc1; Nle = CCCC[C@H](N)C(=O)O; Cbz = O=C(OCc1ccccc1)*; Bz = O=C(c1ccccc1)*; Bn = c1ccc(C*)cc1
Target: Protease (Human immunodeficiency virus 1, UniProt Q9YQ12)
Assay: Inhibition of HIV1 protease

Chain of Protease (Q9YQ12 whole entry): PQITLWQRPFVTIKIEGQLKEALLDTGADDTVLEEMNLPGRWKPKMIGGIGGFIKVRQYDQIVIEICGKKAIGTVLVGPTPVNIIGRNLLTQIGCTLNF

SMILES	Ki
O=C1N(Cc2ccc3ccccc3c2)[C@H](Cc2ccccc2)[C@H](O)[C@@H](O)[C@@H](Cc2ccccc2)N1Cc1ccc2ccccc2c1	0.05 nM
CC1(C)S[C@H]([C@H](NC(=O)Cc2ccccc2)C(=O)NCc2ccccc2)N[C@H]1C(=O)N[C@H](Cc1ccccc1)[C@H](O)CC(=O)NCc1nc2ccccc2[nH]1	3.2 nM
CC(C)[C@H](NC(=O)N(C)Cc1ccccn1)C(=O)NC(Cc1ccccc1)[C@H](O)[C@H](O)[C@H](Cc1ccccc1)NC(=O)[C@@H](NC(=O)N(C)Cc1ccccn1)C(C)C (stereo partly specified)	1100 nM
COC(=O)[C@@H](NC(=O)[C@@H](NC(=O)[C@H](C)N1CCC([C@H](C)NC(=O)[C@H](C)N)=C[C@@H](Cc2ccccc2)C1)C(C)C)C(C)C	437 nM
CC(=O)N[C@H](C(=O)N[C@H](C(=O)N[C@@H](CC(C)C)[C@@H](O)CC(=O)N[C@@H](C)C(=O)N[C@@H](CC(C)C)C(O)CC(=O)O)C(C)C)C(C)C (single isomer, unassigned) [ACETYLPEPSTATIN]	1100 nM

Test system: not listed separately
Assay: Inhibition of West Nile virus NS3 protease

SMILES	IC50
CCCC[C@H](NCc1ccccc1)C(=O)N[C@@H](CCCCN)C(=O)N[C@@H](CCCNC(=N)N)C(=O)N[C@H](C=O)Cc1ccc(C#N)cc1	62 µM
N=C(N)NCCC[C@@H](C=O)NC(=O)[C@H](CCCNC(=N)N)NC(=O)[C@H](CCCCN)Nc1cccnc1	1 µM
CCCC[C@H](NCc1ccccc1)C(=O)N[C@@H](CCCCN)C(=O)N[C@@H](CCCNC(=N)N)C(=O)N[C@H](C=O)Cc1c[nH]c2ccccc12	10 µM
CC(=O)N[C@@H](CCCCN)C(=O)N[C@@H](CCCNC(=N)N)C(=O)N[C@H](C=O)CCCNC(=N)N (Ac-Lys-Arg-Arg-aldehyde)	0.5 µM
CC(=O)N[C@@H](CCCCN)C(=O)N[C@@H](CCCCN)C(=O)N[C@H](C=O)CCCNC(=N)N (Ac-Lys-Lys-Arg-aldehyde)	0.4 µM
C[C@H](NC(=O)c1ccccc1)C(=O)N[C@@H](CCCCN)C(=O)N[C@@H](CCCNC(=N)N)C(=O)N[C@H](C=O)CCCNC(=N)N (Bz-AKRR-aldehyde)	0.7 µM
N=C(N)NCCC[C@@H](C=O)NC(=O)[C@H](CCCNC(=N)N)NC(=O)c1ccccc1 (Bz-Arg-Arg-aldehyde)	3.9 µM
N=C(N)NCCC[C@H](NC(=O)c1ccccc1)C(=O)N[C@H](C=O)CCCCN (Bz-Arg-Lys-aldehyde)	57.5 µM
NCCCC[C@H](NC(=O)[C@H](Cc1ccccc1)NC(=O)c1ccccc1)C(=O)N[C@@H](CCCN=C(N)N)C(=O)N[C@H](C=O)CCCN=C(N)N (Bz-FKRR-aldehyde)	1.2 µM
N=C(N)NCCC[C@@H](C=O)NC(=O)[C@H](CCCCNC(=O)OCc1ccccc1)NC(=O)c1ccccc1 (Bz-Lys(Cbz)-Arg-aldehyde)	436 µM
N=C(N)NCCC[C@@H](C=O)NC(=O)[C@H](CCCNC(=N)N)NC(=O)[C@H](CCCCN)NC(=O)c1ccccc1 (Bz-Lys-Arg-Arg-aldehyde)	1.5 µM
N=C(N)NCCC[C@H](NC(=O)[C@H](CCCCN)NC(=O)c1ccccc1)C(=O)N[C@H](C=O)Cc1ccccc1 (Bz-Lys-Arg-Phe-aldehyde)	71.1 µM
N=C(N)NCCC[C@H](NC(=O)[C@H](CCCCN)NC(=O)c1ccccc1)C(=O)N[C@H](C=O)Cc1ccc(OCc2ccccc2)cc1 (Bz-Lys-Arg-Tyr(Bn)-aldehyde)	11.8 µM
N=C(N)NCCC[C@H](NC(=O)[C@H](CCCCN)NC(=O)c1ccccc1)C(=O)N[C@H](C=O)Cc1ccc(O)cc1 (Bz-Lys-Arg-Tyr-aldehyde)	14.6 µM
Cc1ccc(C[C@@H](C=O)NC(=O)[C@H](CCCNC(=N)N)NC(=O)[C@H](CCCCN)NC(=O)c2ccccc2)cc1 (Bz-Lys-Arg-[Phe(4-Me)]-aldehyde)	17.7 µM
N=C(N)NCCC[C@@H](C=O)NC(=O)[C@H](CCCCN)NC(=O)c1ccccc1 (Bz-Lys-Arg-aldehyde)	1.4 µM

SMILES	IC50
N=C(N)NCCC[C@@H](C=O)NC(=O)[C@H](CC(N)=O)NC(=O)[C@H](CCCCN)NC(=O)c1ccccc1 (Bz-Lys-Asn-Arg-aldehyde)	71.8 µM
Cc1ccc(C[C@@H](C=O)NC(=O)[C@H](CCCCNC(=O)OCc2ccccc2)NC(=O)[C@H](CCCCN)NC(=O)c2ccccc2)cc1 (Bz-Lys-Lys(Cbz)-[Phe(4-Me)]-aldehyde)	43.3 µM
Cc1ccc(C[C@H](NC(=O)[C@H](CCCCN)NC(=O)c2ccccc2)C(=O)N[C@H](C=O)CCCNC(=N)N)cc1 (Bz-Lys-[Phe(4-Me)]-Arg-aldehyde)	194 µM
Cc1ccc(C[C@@H](C=O)NC(=O)[C@H](Cc2ccc(OCc3ccccc3)cc2)NC(=O)c2ccccc2)cc1 (Bz-Tyr(Bn)-[Phe(4-Me)]-aldehyde)	12.7 µM
CCCC[C@H](NC(=O)c1ccccc1)C(=O)N[C@@H](C)C(=O)N[C@@H](CCCNC(=N)N)C(=O)N[C@H](C=O)CCCNC(=N)N (Bz-[Nle]ARR-aldehyde)	3.8 µM
CCCC[C@H](NC(=O)c1ccccc1)C(=O)N[C@@H](Cc1ccccc1)C(=O)N[C@@H](CCCNC(=N)N)C(=O)N[C@H](C=O)CCCNC(=N)N (Bz-[Nle]FRR-aldehyde)	4.2 µM
CCCC[C@H](NC(=O)c1ccccc1)C(=O)N[C@@H](CCCCN)C(=O)N[C@@H](Cc1ccccc1)C(=O)N[C@H](C=O)CCCNC(=N)N (Bz-[Nle]KFR-aldehyde)	108 µM
CCCC[C@H](NC(=O)c1ccccc1)C(=O)N[C@@H](CCCCN)C(=O)N[C@@H](CCCCN)C(=O)N[C@H](C=O)CCCNC(=N)N (Bz-[Nle]KKR-aldehyde)	1.9 µM
CCCC[C@H](NC(=O)c1ccccc1)C(=O)N[C@@H](CCCCN)C(=O)N[C@@H](CCC(N)=O)C(=O)N[C@H](C=O)CCCNC(=N)N (Bz-[Nle]KQR-aldehyde)	1.7 µM
CCCC[C@H](NC(=O)c1ccccc1)C(=O)N[C@@H](CCCCN)C(=O)N[C@@H](CCCNC(=N)N)C(=O)N[C@H](C=O)Cc1ccccc1 (Bz-[Nle]KRF-aldehyde)	110 µM
CCCC[C@H](NC(=O)c1ccccc1)C(=O)N[C@@H](CCCCN)C(=O)N[C@@H](CCCNC(=N)N)C(=O)N[C@H](C=O)Cc1cnc[nH]1 (Bz-[Nle]KRH-aldehyde)	43.1 µM
CCCC[C@H](NC(=O)c1ccccc1)C(=O)N[C@@H](CCCCN)C(=O)N[C@@H](CCCNC(=N)N)C(=O)N[C@H](C=O)CCCCN (Bz-[Nle]KRK-aldehyde)	57.7 µM
CCCC[C@H](NC(=O)c1ccccc1)C(=O)N[C@@H](CCCCN)C(=O)N[C@@H](CCCNC(=N)N)C(=O)N[C@H](C=O)CCCNC(=N)N (Bz-[Nle]KRR-aldehyde)	4.1 µM
CCCC[C@H](NC(=O)c1ccccc1)C(=O)N[C@@H](CCCCN)C(=O)N[C@@H](CCCNC(=N)N)C(=O)N[C@H](C=O)Cc1ccc(NC(=N)N)cc1 (Bz-[Nle]KR[Phe(4-guanidino)]-aldehyde)	11.8 µM
CCCC[C@H](NC(=O)c1ccccc1)C(=O)N[C@@H](CCCCN)C(=O)N[C@@H](CCCNC(=N)N)C(=O)N[C@H](C=O)c1ccccc1 (Bz-[Nle]KR[Phg]-aldehyde)	90.9 µM

Reference: ChEMBL document CHEMBL1155074, “Is quantum mechanics necessary for predicting binding free energy?” (J Med Chem, 2008)
